The results in this text go back to PubChem BioAssay (NCI).

Among the test systems are DU-145 prostate; IGROV1 ovarian; KM12 colon; MDA-MB-435; NCI-H226 lung; SF-295 CNS; SK-MEL-28 melanoma; TK-10 renal; UACC-257 melanoma; UACC-62 melanoma.
Common to all, as to assay: NCI-60 cell line screen, 48 h

Where “and” joins values, the source holds several entries; their conditions need not be identical. Identical values can stand only once.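 All cell lines were grown in 96-well plates and treated with compound for 48 hours. GI50 = concentration required for 50% inhibition of growth. TGI is the concentration that stops growth completely.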

For `S=C(Nc1ccc(Cl)cc1)Nc1ccc(-c2nc3ccccc3s2)cc1`, the GI50 is 13.6 µM in the assay with DU-145 prostate; 16.8 µM in the assay on IGROV1 ovarian; 15 µM in the assay with KM12 colon; 13.4 µM in the assay on MDA-MB-435; 17.9 µM in the assay on NCI-H226 lung; 16.1 µM with SF-295 CNS. In addition, the GI50 with SK-MEL-28 melanoma is 19.1 µM; with TK-10 renal it was 15.1 µM; in the assay on UACC-257 melanoma it was 20.3 µM; in the assay with UACC-62 melanoma it was 10.4 µM. Besides, the TGI is 30 µM in the assay with DU-145 prostate; 37.9 µM in the assay with IGROV1 ovarian; 49.1 µM with KM12 colon; 29.8 µM in the assay with MDA-MB-435; 47.4 µM in the assay on NCI-H226 lung; 40.6 µM in the assay with SF-295 CNS. Moreover, the TGI with SK-MEL-28 melanoma amounted to 44.2 µM; with TK-10 renal, 44.5 µM; with UACC-257 melanoma, 44.9 µM; with UACC-62 melanoma it was 24.8 µM.

On to `CN1CCN(C2CCN(C(=O)Nc3cc(Oc4ccc(NC(=O)C5(C(=O)Nc6ccc(F)cc6)CC5)c(F)c4)ccn3)CC2)CC1`, for which the GI50 in the assay on DU-145 prostate was 1.41 µM; with IGROV1 ovarian it was 1.1 µM; in the assay on KM12 colon, 0.292 µM; with MDA-MB-435, 0.918 µM; in the assay on SF-295 CNS, 0.47 µM; in the assay with SK-MEL-28 melanoma, 0.771 µM. The GI50 was 0.365 µM with TK-10 renal, 0.73 µM in the assay with UACC-257 melanoma and 0.771 µM in the assay with UACC-62 melanoma. Also, the TGI in the assay with DU-145 prostate was over 10 µM; in the assay with IGROV1 ovarian, over 10 µM; with KM12 colon, over 2.52 µM; in the assay on MDA-MB-435, over 3.27 µM; in the assay on NCI-H226 lung, over 3.12 µM; in the assay with SF-295 CNS, over 3.67 µM. In addition, the TGI with SK-MEL-28 melanoma was 2.28 µM; in the assay with TK-10 renal it was over 10 µM; in the assay on UACC-257 melanoma it was 2.27 µM; in the assay on UACC-62 melanoma, over 2.02 µM.

Consider `COC(=O)C[C@](O)(CCCC(C)(C)O)C(=O)O[C@@H]1C(OC)=C[C@]23CCCN2CCc2cc4c(cc2[C@H]13)OCO4`, for which the GI50 was 0.0343 µM in the assay with DU-145 prostate; 0.0284 µM in the assay on IGROV1 ovarian; 0.0326 µM in the assay on KM12 colon; 0.0279 µM in the assay with MDA-MB-435; 0.0112 µM in the assay on NCI-H226 lung; 0.0237 µM in the assay with SF-295 CNS. Further, the GI50 in the assay on SK-MEL-28 melanoma is 0.0222 µM; in the assay on TK-10 renal it was 0.0347 µM; in the assay on UACC-257 melanoma, 0.205 µM and 0.0232 µM; in the assay on UACC-62 melanoma it was 0.03 µM. In addition, the TGI with IGROV1 ovarian was 1.4 µM and 0.795 µM; in the assay on KM12 colon it was 0.885 µM and 0.182 µM; with UACC-257 melanoma, 0.839 µM and 0.0881 µM; in the assay on UACC-62 melanoma it was 0.712 µM and 0.137 µM.

Turning to `CCOC(=O)C1=CN(C)C=C(C(=O)OCC)C1c1cc(Br)c(OCC)c(OC)c1`, the GI50 is over 100 µM in the assay on DU-145 prostate; over 100 µM with IGROV1 ovarian; 35 µM in the assay on KM12 colon; over 100 µM with MDA-MB-435; over 100 µM in the assay on NCI-H226 lung; 41.1 µM in the assay with SF-295 CNS. Further, the GI50 in the assay with SK-MEL-28 melanoma was over 100 µM; in the assay on TK-10 renal, over 100 µM; in the assay on UACC-257 melanoma it was over 100 µM; in the assay with UACC-62 melanoma, 69.4 µM. Also, the TGI in the assay with DU-145 prostate, in the assay with IGROV1 ovarian, in the assay with KM12 colon, in the assay on MDA-MB-435, with NCI-H226 lung and in the assay on SF-295 CNS was over 100 µM throughout. Also, the TGI in the assay with SK-MEL-28 melanoma, with TK-10 renal, in the assay with UACC-257 melanoma and in the assay on UACC-62 melanoma was over 100 µM in each case.
